Legend:
[1] = system: Escherichia coli expressing NDM-1 (CLB30016); experiment: Antibiotic potentiation activity: synergistic concentration (MITC95) with imipenem, growth by OD600; type: cell-based; settings: 95% inhibition of bacterial growth, strain CLB30016
Outline: (§1)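 MITC95 = lowest inhibitor concentration giving 95% growth inhibition, read by absorbance after 22–24 h at 35° C. Compound range 200 μM to 0.195 μM, imipenem fixed at 1 or 4 μg/ml, bacteria in 1.1×CAMHB from saline suspension diluted 1:100.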

[2] = system: Serratia marcescens expressing IMP-1 (CL5741); experiment: as above; type: cell-based; settings: 95% inhibition of bacterial growth, strain CL5741
Outline: as §1

[3] = system: Klebsiella pneumoniae expressing VIM-1 (IHMA599644); experiment: as above; type: cell-based; settings: 95% inhibition of bacterial growth, strain IHMA599644
Outline: as §1

VIM-1 = VIM-1 (Pseudomonas aeruginosa, UniProt A0A0F7KYQ8); experiment: Enzyme activity: determination of IC50, fluorescence assay with CCF2-FA substrate; type: biochemical; settings: enzyme 30 pM, CCF2-FA 1.25 μM, 2 hours at 25° C.; read-out: VIM1 IC50
Outline: (§2)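 100 mM KH2PO4 pH 7 + 0.005% Tween-20 + 10 μM ZnSO4; CCF2-FA 1.25 μM; NDM-1 1 pM, IMP-1 2 pM, VIM-1 30 pM; cpd 20–0.00063 μM final, DMSO 1:50. 2 h, 25° C. Ex 405/em 460 nm; IC50, 4-param fit.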

IMP-1 = IMP-1 (Serratia marcescens, UniProt P52699); experiment: as above; type: biochemical; settings: enzyme 2 pM, CCF2-FA 1.25 μM, 2 hours at 25° C.; read-out: IMP1 IC50
Outline: as §2

NDM-1 = NDM-1 (Klebsiella pneumoniae, UniProt C7C422); experiment: as above; type: biochemical; settings: enzyme 1 pM, CCF2-FA 1.25 μM, 2 hours at 25° C.; read-out: NDM1 IC50
Outline: as §2

Chain of IMP-1 (P52699 19-246, looked up, species assumed): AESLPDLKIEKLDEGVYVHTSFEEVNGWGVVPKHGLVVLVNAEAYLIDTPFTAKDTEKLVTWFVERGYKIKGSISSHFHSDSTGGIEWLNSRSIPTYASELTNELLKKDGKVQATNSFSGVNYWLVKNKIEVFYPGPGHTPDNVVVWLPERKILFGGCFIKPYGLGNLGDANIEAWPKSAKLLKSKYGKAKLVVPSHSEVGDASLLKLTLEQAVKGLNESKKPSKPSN
Chain of NDM-1 (C7C422 29-270, looked up, species assumed): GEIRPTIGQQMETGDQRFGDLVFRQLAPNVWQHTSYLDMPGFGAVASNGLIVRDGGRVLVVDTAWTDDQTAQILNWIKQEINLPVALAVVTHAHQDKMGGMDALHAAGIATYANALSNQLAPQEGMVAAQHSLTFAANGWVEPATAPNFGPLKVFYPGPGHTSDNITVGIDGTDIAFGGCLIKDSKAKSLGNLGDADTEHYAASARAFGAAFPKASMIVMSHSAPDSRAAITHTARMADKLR

Structure (SMILES)	NDM1 EC30016 MITC95 [1] [µM]	IMP1 SM5741 MITC95 [2] [µM]	VIM1 KP599644 MITC95 [3] [µM]	IC50 (VIM-1) [nM]	IC50 (IMP-1) [nM]	IC50 (NDM-1) [nM]
CC(C)C[C@H](C(=O)O)[C@H](Cc1ccc(-c2ccc([C@@H]3OC(=O)N[C@@H]3C)cc2)cn1)c1nn[nH]n1 [Example 173, (2S)-4-methyl-2-[(1S)-2-(5-{4-[(4R,5S)-4-methyl-2-oxo-1,3-oxazolidin-5-yl]phenyl}pyridin-2-yl)-1-(2H-tetrazol-5-yl)ethyl]pentanoic acid]	25	31	>200	110	500	27
CC(C)C[C@H](C(=O)O)[C@H](Cc1ccc(-c2ccc(CN)cc2)cn1)c1nn[nH]n1 [Example 174, (2S)-2-[(1S)-2-{5-[4-(aminomethyl)phenyl]pyridin-2-yl}-1-(2H-tetrazol-5-yl)ethyl]-4-methylpentanoic acid]	9.4	50	25	110	2700	240
CC(C)C[C@H](C(=O)O)[C@H](Cc1ccc(-c2ccc(S(N)(=O)=O)cc2)cn1)c1nn[nH]n1 [Example 175, (2S)-4-methyl-2-[(1S)-2-[5-(4-sulfamoylphenyl)pyridin-2-yl]-1-(2H-tetrazol-5-yl)ethyl]pentanoic acid]	18.8	75	50	12	840	19
CC(C)C[C@H](C(=O)O)[C@H](Cc1ccc(-c2ccc(N)nc2)nc1)c1nn[nH]n1 [Example 176, (2S)-2-[(1S)-2-(6′-amino-2,3′-bipyridin-5-yl)-1-(2H-tetrazol-5-yl)ethyl]-4-methylpentanoic acid]	16	6.2	25	5.7	150	25
CC(C)C[C@H](C(=O)O)[C@H](Cc1ccc(-c2ccc(CO)cc2)nc1)c1nn[nH]n1 [Example 177, (2S)-2-[(1S)-2-{6-[4-(hydroxymethyl)phenyl]pyridin-3-yl}-1-(2H-tetrazol-5-yl)ethyl]-4-methylpentanoic acid]	12.5	4.7	38	5.1	140	40
CC(C)C[C@H](C(=O)O)[C@H](Cc1ccc(-c2ccnc(N)c2)nc1)c1nn[nH]n1 [Example 178, (2S)-2-[(1S)-2-(2′-amino-2,4′-bipyridin-5-yl)-1-(2H-tetrazol-5-yl)ethyl]-4-methylpentanoic acid]	9.4	12.5	25	2.4	390	43
CC(C)C[C@H](C(=O)O)[C@H](Cc1ccc(-c2ccnc(N)c2)cn1)c1nn[nH]n1 [Example 179, (2S)-2-[(1S)-2-(2′-amino-3,4′-bipyridin-6-yl)-1-(2H-tetrazol-5-yl)ethyl]-4-methylpentanoic acid]	12.5	38	50	24	1300	66
CC(C)C[C@H](C(=O)O)[C@H](Cc1ccc(-c2ccc3c(c2)OCC(=O)N3)nc1)c1nn[nH]n1 [Example 180, (2S)-4-methyl-2-[(1S)-2-[6-(3-oxo-3,4-dihydro-2H-1,4-benzoxazin-7-yl)pyridin-3-yl]-1-(2H-tetrazol-5-yl)ethyl]pentanoic acid]	25	3.1	50	1.7	130	17
CC(C)C[C@H](C(=O)O)[C@H](Cc1ccc(C2=CCNC2)nc1)c1nn[nH]n1 [Example 181, (2S)-2-[(1S)-2-[6-(2,5-dihydro-1H-pyrrol-3-yl)pyridin-3-yl]-1-(2H-tetrazol-5-yl)ethyl]-4-methylpentanoic acid]	38	100	75	17	4400	1000
CCC[C@H](C(=O)O)[C@@H](Cc1ccc(-c2ccc3c(c2)OCC(=O)N3)cn1)c1nnn[nH]1 [Example 182, (2S)-2-[(1R)-2-[5-(3-oxo-3,4-dihydro-2H-1,4-benzoxazin-7-yl)pyridin-2-yl]-1-(1H-tetrazol-5-yl)ethyl]pentanoic acid]	150	>200	>200	330	16000	1000
CCC[C@H](C(=O)O)[C@H](Cc1ccc(NCC2CCCN2CC)cc1)c1nn[nH]n1 (stereo partly drawn) [Example 215, (2S)-2-[(1S)-2-(4-{[(1-ethylpyrrolidin-2-yl)methyl]amino}phenyl)-1-(2H-tetrazol-5-yl)ethyl]pentanoic acid]	12.5	18.8	50	29	1100	170
CCC[C@H](C(=O)O)[C@H](Cc1ccc(NCCN2CCOCC2)cc1)c1nn[nH]n1 [Example 216, (2S)-2-[(1S)-2-{4-[(2-morpholin-4-ylethyl)amino]phenyl}-1-(2H-tetrazol-5-yl)ethyl]pentanoic acid]	31	18.8	150	110	490	140
CCC[C@H](C(=O)O)[C@H](Cc1ccc(NCCN2CCCCC2)cc1)c1nn[nH]n1 [Example 217, (2S)-2-[(1S)-2-{4-[(2-piperidin-1-ylethyl)amino]phenyl}-1-(2H-tetrazol-5-yl)ethyl]pentanoic acid]	12.5	50	50	38	2400	500
CCC[C@H](C(=O)O)[C@H](Cc1ccc(NCC(=O)N(C)C)cc1)c1nn[nH]n1 [Example 218, (2S)-2-[(1S)-2-(4-{[2-(dimethylamino)-2-oxoethyl]amino}phenyl)-1-(2H-tetrazol-5-yl)ethyl]pentanoic acid]	31	25	50	21	460	40
CCC[C@H](C(=O)O)[C@H](Cc1ccc(NCCN2CCN(C(C)C)CC2)cc1)c1nn[nH]n1 [Example 219, (2S)-2-[(1S)-2-[4-({2-[4-(1-methylethyl)piperazin-1-yl]ethyl}amino)phenyl]-1-(2H-tetrazol-5-yl)ethyl]pentanoic acid]	25	25	100	93	1000	210
CCC[C@H](C(=O)O)[C@H](Cc1ccc(NCCN2CCCC(O)C2)cc1)c1nn[nH]n1 (stereo partly drawn) [Example 220, (2S)-2-[(1S)-2-(4-{[2-(3-hydroxypiperidin-1-yl)ethyl]amino}phenyl)-1-(2H-tetrazol-5-yl)ethyl]pentanoic acid]	25	50	50	75	1600	360
CCC[C@H](C(=O)O)[C@H](Cc1ccc(NCCn2ccnn2)cc1)c1nn[nH]n1 [Example 221, (2S)-2-[(1S)-1-(2H-tetrazol-5-yl)-2-(4-{[2-(1H-1,2,3-triazol-1-yl)ethyl]amino}phenyl)ethyl]pentanoic acid]	31	16	100	27	220	84
CCC[C@H](C(=O)O)[C@H](Cc1ccc(NC(C)CN)cc1)c1nn[nH]n1 (stereo partly drawn) [Example 222, (2S)-2-[(1S)-2-{4-[(2-amino-1-methylethyl)amino]phenyl}-1-(2H-tetrazol-5-yl)ethyl]pentanoic acid]	18.8	25	25	9.1	1700	710
CCC[C@H](C(=O)O)[C@H](Cc1ccc(NC2CCCN(CCC)C2)cc1)c1nn[nH]n1 (stereo partly drawn) [Example 223, (2S)-2-[(1S)-2-{4-[(1-propylpiperidin-3-yl)amino]phenyl}-1-(2H-tetrazol-5-yl)ethyl]pentanoic acid]	38	25	75	71	1300	500
